Five substances from patent US9833497B2, “Human originated EGF domain proteins and use of the same” (CHENGDU SOURCEBIO LIMITED-LIABILITY COMPANY, priority 2013, dated 2017) can be followed below.

What is called MIC is the lowest concentration found to suppress growth.

Holding throughout (format): cell-based
The subject of one assay is E. coli BL21. In words: MIC against Gram-negative bacteria: E. coli BL21. As to conditions: 5×10^5 CFU/mL. Put shortly:
(§1)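 Growth inhibition by human EGF domain proteins was scored in LB liquid culture seeded at 5×10^5 CFU/mL. Protein was applied as a two-fold dilution series in triplicate, with shaking incubation at 37° C; MIC is the lowest concentration giving no growth.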

The test system of the next assay is Pseudomonas aeruginosa. In words: MIC against Gram-negative bacteria: Pseudomonas aeruginosa. To be noted: 5×10^5 CFU/mL. Put shortly:
as §1

The subject of the next assay is Klebsiella pneumonia. Put plainly: MIC against Gram-negative bacteria: Klebsiella pneumonia. To be noted: 5×10^5 CFU/mL. Put shortly:
as §1

Another assay concerns Citrobacter diversus. In words: MIC against Gram-negative bacteria: Citrobacter diversus. As to conditions: 5×10^5 CFU/mL. Put shortly:
as §1

The test system of another assay is Serratia marcescens. Put plainly: MIC against Gram-negative bacteria: Serratia marcescens. As to conditions: 5×10^5 CFU/mL. The procedure, abridged:
as §1

Another assay concerns Aeromonas hydrophila. In words: MIC against Gram-negative bacteria: Aeromonas hydrophila. As to conditions: 5×10^5 CFU/mL. The procedure, abridged:
as §1

The test system of a further assay is Proteus mirabilis. In words: MIC against Gram-negative bacteria: Proteus mirabilis. To be noted: 5×10^5 CFU/mL. The procedure, abridged: as §1
In another assay the test system is Proteus vulgaris. Put plainly: MIC against Gram-negative bacteria: Proteus vulgaris. As to conditions: 5×10^5 CFU/mL. Put shortly: as §1
In another assay the test system is Moraxella catarrhalis. In words: MIC against Gram-negative bacteria: Moraxella catarrhalis. To be noted: 5×10^5 CFU/mL. The procedure, abridged:
as §1

The next assay relates to Enterobacter cloacae. Put plainly: MIC against Gram-negative bacteria: Enterobacter cloacae. To be noted: 5×10^5 CFU/mL. The procedure, abridged:
as §1

The next assay deals with E. coli DH5α. In words: Antibacterial activity: MIC and growth curve against E. coli DH5α in 96-well plate. As to conditions: minimal inhibitory concentration against E. coli DH5α; 96-well plate, 5×10^5 CFU/mL, 37° C., judged after 8 h. Put shortly: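 Log-phase bacteria (OD600 ~0.5) resuspended in LB at 5×10^5 CFU/mL, exposed to recombinant protein at 50, 25, 12.5 μg/mL final in triplicate, 37 °C shaking at 175 rpm. OD600 read every 30 min; MIC is lowest concentration showing no growth.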

Setting [1] is: E. coli BL21, 10 h cultivation at 37° C.
Setting [2] is: Pseudomonas aeruginosa, 10 h cultivation at 37° C.
[3] abbreviates: Klebsiella pneumonia, 10 h cultivation at 37° C.
The mark [4] stands for this setting: Citrobacter diversus, 10 h cultivation at 37° C.
[5] abbreviates: Serratia marcescens, 10 h cultivation at 37° C.
The mark [6] stands for this setting: Aeromonas hydrophila, 10 h cultivation at 37° C.
The mark [7] stands for this setting: Proteus mirabilis, 10 h cultivation at 37° C.
Where [8] appears, read: Proteus vulgaris, 10 h cultivation at 37° C.
[9] abbreviates: Moraxella catarrhalis, 10 h cultivation at 37° C.
Setting [10] is: Enterobacter cloacae, 10 h cultivation at 37° C.
[11] abbreviates: E. coli BL21, 96-well plate, 37° C., 10 h.
Where [12] appears, read: Pseudomonas aeruginosa, 96-well plate, 37° C., 10 h.
Setting [13] is: Klebsiella pneumonia, 96-well plate, 37° C., 10 h.
The mark [14] stands for this setting: Citrobacter diversus, 96-well plate, 37° C., 10 h.
Setting [15] is: Serratia marcescens, 96-well plate, 37° C., 10 h.
The mark [16] stands for this setting: Aeromonas hydrophila, 96-well plate, 37° C., 10 h.
Setting [17] is: Proteus mirabilis, 96-well plate, 37° C., 10 h.
Where [18] appears, read: Proteus vulgaris, 96-well plate, 37° C., 10 h.
Setting [19] is: Moraxella catarrhalis, 96-well plate, 37° C., 10 h.
Where [20] appears, read: Enterobacter cloacae, 96-well plate, 37° C., 10 h.
[21] abbreviates: 10 h cultivation at 37° C., two-fold serial dilution.

For “PRT1464 (CNCDKTGTINGSLLCNKSTGQCPCKLGVTGLRCNQCEPHRYNLTIDNFQHCQM; listed as Homo sapiens)”, the “MIC against E. coli BL21” value against E. coli BL21 (setting [1]) was determined as 25 µg/mL. In addition, in the assay with Pseudomonas aeruginosa (setting [2]), the “MIC against P. aeruginosa” value worked out at 12.5 µg/mL. The “MIC against K. pneumonia” value with Klebsiella pneumonia (setting [3]) worked out at 12.5 µg/mL. For the same substance, the “MIC against C. diversus” value in the assay on Citrobacter diversus (setting [4]) stood at 12.5 µg/mL. Moreover, the “MIC against S. marcescens” value with Serratia marcescens (setting [5]) was determined as 50 µg/mL. Also, the “MIC against A. hydrophila” value with Aeromonas hydrophila (setting [6]) was determined as 12.5 µg/mL. In addition, the “MIC against P. mirabilis” value against Proteus mirabilis (setting [7]) was found to be 12.5 µg/mL. For the same substance, in the assay on Proteus vulgaris (setting [8]), the “MIC against P. vulgaris” value came to 25 µg/mL. The “MIC against M. catarrhalis” value in the assay with Moraxella catarrhalis (setting [9]) was determined as 12.5 µg/mL. The “MIC against E. cloacae” value in the assay on Enterobacter cloacae (setting [10]) amounted to 12.5 µg/mL. The MIC against E. coli DH5α was determined as 12.5 µg/mL.

For the substance “PRT1425 (DIDECENGGFCSGVCHNLPGTFECICGPDSALARHIGTDCD; listed as Homo sapiens)”, the “MIC against E. coli BL21” value in the assay with E. coli BL21 (setting [1]) came to 50 µg/mL. In the assay with Pseudomonas aeruginosa (setting [2]), the “MIC against P. aeruginosa” value stood at 12.5 µg/mL. The “MIC against K. pneumonia” value in the assay with Klebsiella pneumonia (setting [3]) came to 50 µg/mL. The “MIC against C. diversus” value with Citrobacter diversus (setting [4]) came out at 50 µg/mL. Besides, the “MIC against S. marcescens” value against Serratia marcescens (setting [5]) came out at 12.5 µg/mL. Moreover, the “MIC against A. hydrophila” value against Aeromonas hydrophila (setting [6]) was 12.5 µg/mL. For the same substance, the “MIC against P. mirabilis” value against Proteus mirabilis (setting [7]) was determined as 12.5 µg/mL. The “MIC against P. vulgaris” value in the assay with Proteus vulgaris (setting [8]) came out at 12.5 µg/mL. In addition, in the assay on Moraxella catarrhalis (setting [9]), the “MIC against M. catarrhalis” value worked out at 12.5 µg/mL. The “MIC against E. cloacae” value with Enterobacter cloacae (setting [10]) amounted to 25 µg/mL. The substance also displayed an MIC with E. coli DH5α of 12.5 µg/mL.

With “PRT1247 (WGARCEHACQCQHGTCHPRSGACRCEPGWWGAQCA; listed as Homo sapiens)”, the “MIC against E. coli BL21” value against E. coli BL21 (setting [11]) was 12.5 µg/mL. For the same substance, the “MIC against P. aeruginosa” value in the assay with Pseudomonas aeruginosa (setting [12]) stood at 12.5 µg/mL. Also, the “MIC against K. pneumonia” value against Klebsiella pneumonia (setting [13]) is 25 µg/mL. In addition, the “MIC against C. diversus” value against Citrobacter diversus (setting [14]) came out at 25 µg/mL. In addition, the “MIC against S. marcescens” value against Serratia marcescens (setting [15]) came to 25 µg/mL. Also, the “MIC against A. hydrophila” value in the assay on Aeromonas hydrophila (setting [16]) was 12.5 µg/mL. For the same substance, in the assay on Proteus mirabilis (setting [17]), the “MIC against P. mirabilis” value is 25 µg/mL. In addition, the “MIC against P. vulgaris” value against Proteus vulgaris (setting [18]) is 12.5 µg/mL. Also, the “MIC against M. catarrhalis” value against Moraxella catarrhalis (setting [19]) worked out at 12.5 µg/mL. In addition, the “MIC against E. cloacae” value in the assay with Enterobacter cloacae (setting [20]) was 12.5 µg/mL. For the same substance, the MIC in the assay on E. coli DH5α was 50 µg/mL.

Consider “PRT1497 (KPVCEPGCGAHGTCHEPNKCQCQEGWHGRHCN; listed as Homo sapiens)”, for which, in the assay on E. coli BL21 (setting [11]), the “MIC (μg/mL) E. coli BL21” value was determined as 25 µg/mL. Besides, the “MIC (μg/mL) P. aeruginosa” value in the assay with Pseudomonas aeruginosa (setting [12]) came to 12.5 µg/mL. For the same substance, in the assay on Klebsiella pneumonia (setting [13]), the “MIC (μg/mL) K. pneumonia” value was 50 µg/mL. In addition, the “MIC (μg/mL) C. diversus” value in the assay with Citrobacter diversus (setting [14]) was 25 µg/mL. Moreover, the “MIC (μg/mL) S. marcescens” value against Serratia marcescens (setting [15]) was found to be 12.5 µg/mL. In addition, the “MIC (μg/mL) A. hydrophila” value with Aeromonas hydrophila (setting [16]) turned out to be 12.5 µg/mL. In the assay on Proteus mirabilis (setting [17]), the “MIC (μg/mL) P. mirabilis” value came out at 12.5 µg/mL. For the same substance, the “MIC (μg/mL) P. vulgaris” value in the assay with Proteus vulgaris (setting [18]) came to 50 µg/mL. Also, in the assay with Moraxella catarrhalis (setting [19]), the “MIC (μg/mL) M. catarrhalis” value was found to be 50 µg/mL. Besides, the “MIC (μg/mL) E. cloacae” value with Enterobacter cloacae (setting [20]) amounted to 25 µg/mL. In the assay with E. coli DH5α, this substance returned an MIC of 50 µg/mL.

For the substance “PRT1180 (DIDYCEPNPCQNGAQCYNRASDYFCKCPEDYEGKNCS; listed as Homo sapiens)”, the “MIC E. coli BL21” value in the assay with E. coli BL21 (setting [21]) came to 12.5 µg/mL. The “MIC P. aeruginosa” value in the assay on Pseudomonas aeruginosa (setting [21]) was 50 µg/mL. Further, in the assay with Klebsiella pneumonia (setting [21]), the “MIC K. pneumonia” value was 25 µg/mL. Besides, the “MIC C. diversus” value against Citrobacter diversus (setting [21]) is 25 µg/mL. In addition, in the assay with Serratia marcescens (setting [21]), the “MIC S. marcescens” value was determined as 25 µg/mL. Further, the “MIC A. hydrophila” value in the assay on Aeromonas hydrophila (setting [21]) was determined as 50 µg/mL. In addition, the “MIC P. mirabilis” value with Proteus mirabilis (setting [21]) amounted to 25 µg/mL. Moreover, in the assay with Proteus vulgaris (setting [21]), the “MIC P. vulgaris” value came to 50 µg/mL. Moreover, the “MIC M. catarrhalis” value against Moraxella catarrhalis (setting [21]) was determined as 12.5 µg/mL. Further, the “MIC E. cloacae” value in the assay with Enterobacter cloacae (setting [21]) was 12.5 µg/mL. Besides, the MIC in the assay with E. coli DH5α was found to be 50 µg/mL.
